# Measurements as given in US8344028B2, “Gamma-amino-butyric acid derivatives as GABAB receptor ligands” (XenoPort, Inc., priority 2009, dated 2013).
# Where a name gives a salt, the structure may show the parent alone.
# Legend:
# GABAB receptor [1] = target: T1, GABAB receptor (Rattus norvegicus, UniProt Q9Z0U4); test: [3H]CGP54626 rat brain GABAB receptor binding assay; settings: [3H]CGP54626 rat brain binding assay
# T1 construct: from tissue; host or cells: rat cerebral cortex membranes
# Method: An assay using rat cerebral cortex membranes was used to determine the affinity of GABAB receptor ligands for the GABAB receptor.
# An assay buffer of 50 mM Tris pH 7.4 was prepared with 100 μM of isoguvacine, to block GABAA interactions. The assay buffer with isoguvacine was used for dilution of membranes, compounds, and radiolabel.
# Rat cerebral cortex membranes were diluted in assay buffer at 1 mg/mL and aliquoted into a 96-well plate at 900 μL/well. Buffer or test compound were added at 20-times final concentration in the buffer at 50 μL/well. Membranes and test compounds or buffer were incubated for 10 min. at room temperature. Radiolableled [S—(R*,R*)]-[3-[[1-(3,4-dichlorophenyl)ethyl]amino]-2-hydroxypropyl](cyclohexylmethyl) phosphinic acid (CGP54626) was then added at 50 μL/well in the buffer at 1-10 nM concentration in 50 μl. The mixture was incubated for 15 min. at room temperature. The assay mixture was filtered using Brandell filtration apparatus and GFB filters, washed twice with 3 mL of 4° C., 50 mM Tris pH 7.4, buffer without isoguvacine. The filters were then dried at room temperature and the dried filters punched out and placed in individual vials. Three (3) mL of scintillation fluid was added to each vial and the radiolabel counted on the scintillation counter. The inverse amount of radiolabel was indicative of binding of a test compound to the GABAB receptor.
# [2] = target: T2, recombinant human GABABR1a2 (Homo sapiens, UniProt Q9UBS5); test: cAMP assay for determining GABAB receptor agonist activity; type: cell-based; settings: cells expressing recombinant human GABABR1a2; read-out: cAMP EC50
# T2 construct: expressed in transfected cells; host or cells: HEK cells
# T2 sequence (Q9UBS5 15-961 limits assumed): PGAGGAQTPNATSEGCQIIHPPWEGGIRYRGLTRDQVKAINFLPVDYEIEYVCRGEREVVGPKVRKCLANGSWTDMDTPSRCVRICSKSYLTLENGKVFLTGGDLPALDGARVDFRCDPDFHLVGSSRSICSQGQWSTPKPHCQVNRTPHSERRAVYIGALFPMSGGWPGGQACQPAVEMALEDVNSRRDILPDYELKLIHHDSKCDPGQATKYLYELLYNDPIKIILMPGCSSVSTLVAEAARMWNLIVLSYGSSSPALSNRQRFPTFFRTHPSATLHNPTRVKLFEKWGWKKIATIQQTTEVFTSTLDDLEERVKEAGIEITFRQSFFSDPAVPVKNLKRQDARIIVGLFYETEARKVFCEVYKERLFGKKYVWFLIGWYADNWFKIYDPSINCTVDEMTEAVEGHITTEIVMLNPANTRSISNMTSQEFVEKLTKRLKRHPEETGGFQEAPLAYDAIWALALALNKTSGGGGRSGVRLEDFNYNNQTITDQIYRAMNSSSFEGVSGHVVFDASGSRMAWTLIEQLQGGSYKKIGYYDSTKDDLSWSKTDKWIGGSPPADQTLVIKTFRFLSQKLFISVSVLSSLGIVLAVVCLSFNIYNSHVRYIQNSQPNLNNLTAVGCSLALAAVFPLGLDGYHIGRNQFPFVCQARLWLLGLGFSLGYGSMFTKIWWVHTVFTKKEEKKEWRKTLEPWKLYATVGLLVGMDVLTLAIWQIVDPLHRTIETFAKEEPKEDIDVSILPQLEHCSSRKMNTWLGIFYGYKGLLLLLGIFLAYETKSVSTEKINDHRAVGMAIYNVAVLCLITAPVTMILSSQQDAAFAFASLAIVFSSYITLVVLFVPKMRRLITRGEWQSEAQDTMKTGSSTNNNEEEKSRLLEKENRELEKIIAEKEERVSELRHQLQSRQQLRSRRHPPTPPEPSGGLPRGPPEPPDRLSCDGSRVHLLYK
# T2 sequence (O75899 42-941 partner): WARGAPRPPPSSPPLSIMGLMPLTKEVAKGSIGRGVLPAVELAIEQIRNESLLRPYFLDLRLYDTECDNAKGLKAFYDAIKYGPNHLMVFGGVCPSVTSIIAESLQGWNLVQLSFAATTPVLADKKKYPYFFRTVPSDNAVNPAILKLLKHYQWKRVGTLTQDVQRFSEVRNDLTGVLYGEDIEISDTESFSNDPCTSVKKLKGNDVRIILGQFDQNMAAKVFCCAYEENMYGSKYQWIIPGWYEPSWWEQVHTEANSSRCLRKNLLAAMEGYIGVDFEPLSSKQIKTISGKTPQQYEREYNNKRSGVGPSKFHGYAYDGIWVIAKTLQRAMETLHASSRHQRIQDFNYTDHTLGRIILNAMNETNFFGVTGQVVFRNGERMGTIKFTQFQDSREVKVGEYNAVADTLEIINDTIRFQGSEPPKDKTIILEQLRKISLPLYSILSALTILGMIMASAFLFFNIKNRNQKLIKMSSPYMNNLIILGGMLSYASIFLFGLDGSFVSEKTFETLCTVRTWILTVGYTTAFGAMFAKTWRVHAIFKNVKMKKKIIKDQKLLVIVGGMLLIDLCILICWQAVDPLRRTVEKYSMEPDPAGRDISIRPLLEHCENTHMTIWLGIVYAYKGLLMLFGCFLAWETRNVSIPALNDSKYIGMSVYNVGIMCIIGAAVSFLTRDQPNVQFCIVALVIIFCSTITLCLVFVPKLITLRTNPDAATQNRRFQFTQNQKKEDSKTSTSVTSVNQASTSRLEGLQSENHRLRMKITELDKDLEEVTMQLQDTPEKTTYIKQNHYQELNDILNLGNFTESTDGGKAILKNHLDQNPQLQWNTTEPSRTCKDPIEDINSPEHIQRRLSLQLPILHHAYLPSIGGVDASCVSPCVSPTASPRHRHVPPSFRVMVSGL
# Method: The following procedure was used to determine the level of intracellular cAMP. Recombinant HEK cells expressing the GABAB R1a2 receptor were used in the experiments. cAMP levels were measured using a cAMP XS^+ HitHunter™ Chemiluminescence Assay Kit (90-0075-02, GE Healthcare Biosciences Corp.). Cells were seeded overnight at 5,000 cells per well, in black, clear bottom 96-well plates. The following morning, cells were washed twice with 100 μL PBS per well. Forskolin was weighed out and dissolved in DMSO to a final concentration 100 mM. One-hundred (100) μM forskolin solutions were prepared in PBS with and without test compound at 1-times final concentration. Thirty (30) μL of the test solutions were added to the wells and incubated for 1 h at room temperature. The cAMP concentration was determined according to the protocol described in the cAMP assay kit, maintaining the plate at room temperature and in the dark. Two hours after the final kit reagent was added, the plate bottom was covered with black tape, and the plate read using a 1450 MicroBeta Trilux microplate scintillation and luminescence counter (PerkinElmer, Waltham, Mass.). Each well was read for 6 seconds. The untransformed data was then analyzed.
# [3] = target: T2, recombinant human GABABR1a2; test: Ca2+ assay for determining GABAB receptor agonist activity; type: cell-based; settings: cells expressing recombinant human GABABR1a2
# Method: The following procedure was used to determine the GABAB receptor agonist activity of a compound as reflected by activation of Ca^2+ signaling. HEK TREx cells expressing GABABR1a2 under tetracycline induction control, and Gqi chimeric protein (expressed constitutively), allowing GABABR coupling through the Ca^2+ signaling pathway were used in the experiments.
# Cells were seeded in media containing tetracycline overnight at 100,000 cells/well, in black, clear-bottom, 96-well plates. The following morning, cells were washed twice with 100 μL HBSS buffer per well. Fluorescent Ca^2+ indicator dye was prepared using the materials and procedure described in the F362056 Fluo-4 NW Calcium Assay Kit (Invitrogen, Carlsbad, Calif.). Ten (10) mL of kit buffer and 100 μl of kit Probenecid were added to individual kit dye vials, and rolled back and forth several times to dissolve the dye. Cells were then loaded into the dye solution at 50 μL per well. The cells and dye were incubated for 30 min at 37° C., and then incubated for an additional 30 min at room temperature in the dark. Test compounds are dissolved in HBSS buffer at twice final concentration. Duplicate wells were used for each unique condition. Solution containing the test compound was added to the wells using a FLEXStation II (Molecular Devices, Sunnyvale, Calif.). Using the instrument in kinetic mode in which each well was read every 2 sec over a total collection time of 50 sec fluorescence was measured using an excitation wavelength 494 nm and a detection wavelength of 516 nm. A normalized fluorescence value for each well was calculated using the following procedure. The difference in fluorescence at 35 sec (usually representing maximal response) and at 15 sec (a time point prior to addition of test compounds) was calculated, divided by the fluorescence at 15 sec, and the result multiplied by 100. The final value represented the percent increase in fluorescence relative to the fluorescence at 15 sec. Data was analyzed using standard procedures.
# GABAB receptor [4] = target: GABAB receptor (Homo sapiens, UniProt Q9UBS5); test: GABAB receptor agonist or partial agonist activity by binding, electrophysiology, cAMP and/or Ca2+ assay methods (Examples 83-86); type: cell-based
# Sequence of GABAB receptor (Homo sapiens, UniProt Q9UBS5) (Q9UBS5 20-961): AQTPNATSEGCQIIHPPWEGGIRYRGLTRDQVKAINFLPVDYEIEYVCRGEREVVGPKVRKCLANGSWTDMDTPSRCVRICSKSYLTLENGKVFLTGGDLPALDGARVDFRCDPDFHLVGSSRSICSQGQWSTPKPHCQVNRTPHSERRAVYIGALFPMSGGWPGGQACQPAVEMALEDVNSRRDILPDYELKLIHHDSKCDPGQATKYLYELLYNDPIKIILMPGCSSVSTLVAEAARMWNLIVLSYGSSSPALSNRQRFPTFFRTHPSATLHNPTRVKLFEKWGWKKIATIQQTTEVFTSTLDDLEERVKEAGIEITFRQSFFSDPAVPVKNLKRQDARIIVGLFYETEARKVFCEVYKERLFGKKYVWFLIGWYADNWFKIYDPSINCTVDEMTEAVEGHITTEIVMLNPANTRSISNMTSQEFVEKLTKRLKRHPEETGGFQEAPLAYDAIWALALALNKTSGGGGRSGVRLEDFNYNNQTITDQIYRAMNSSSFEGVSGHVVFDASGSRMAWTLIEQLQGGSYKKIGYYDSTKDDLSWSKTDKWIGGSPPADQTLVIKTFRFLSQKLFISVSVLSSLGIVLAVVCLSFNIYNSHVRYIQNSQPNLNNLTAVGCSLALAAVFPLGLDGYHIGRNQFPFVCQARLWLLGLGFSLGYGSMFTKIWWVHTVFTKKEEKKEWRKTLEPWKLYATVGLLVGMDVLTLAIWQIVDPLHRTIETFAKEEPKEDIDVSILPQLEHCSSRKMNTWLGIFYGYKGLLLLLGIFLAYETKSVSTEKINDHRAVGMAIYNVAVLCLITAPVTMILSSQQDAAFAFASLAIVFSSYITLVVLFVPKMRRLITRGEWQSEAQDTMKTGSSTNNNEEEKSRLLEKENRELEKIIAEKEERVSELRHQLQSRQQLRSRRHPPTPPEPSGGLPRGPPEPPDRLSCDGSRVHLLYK
# Sequence of GABAB receptor (Homo sapiens, UniProt Q9UBS5) (O75899 42-941 partner): as the sequence (O75899 42-941 partner) above
# Method in brief: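 Binding: rat cortex membranes in 50 mM Tris pH 7.4 with 100 μM isoguvacine were preincubated 10 min at RT with compound, then radiolabeled CGP54626 (1-10 nM) was added; filtered and scintillation-counted. cAMP: GABAB R1a2 HEK cells, 1 h RT with 100 μM forskolin, chemiluminescence.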
# T1 sequence (Q9Z0U4 20-960): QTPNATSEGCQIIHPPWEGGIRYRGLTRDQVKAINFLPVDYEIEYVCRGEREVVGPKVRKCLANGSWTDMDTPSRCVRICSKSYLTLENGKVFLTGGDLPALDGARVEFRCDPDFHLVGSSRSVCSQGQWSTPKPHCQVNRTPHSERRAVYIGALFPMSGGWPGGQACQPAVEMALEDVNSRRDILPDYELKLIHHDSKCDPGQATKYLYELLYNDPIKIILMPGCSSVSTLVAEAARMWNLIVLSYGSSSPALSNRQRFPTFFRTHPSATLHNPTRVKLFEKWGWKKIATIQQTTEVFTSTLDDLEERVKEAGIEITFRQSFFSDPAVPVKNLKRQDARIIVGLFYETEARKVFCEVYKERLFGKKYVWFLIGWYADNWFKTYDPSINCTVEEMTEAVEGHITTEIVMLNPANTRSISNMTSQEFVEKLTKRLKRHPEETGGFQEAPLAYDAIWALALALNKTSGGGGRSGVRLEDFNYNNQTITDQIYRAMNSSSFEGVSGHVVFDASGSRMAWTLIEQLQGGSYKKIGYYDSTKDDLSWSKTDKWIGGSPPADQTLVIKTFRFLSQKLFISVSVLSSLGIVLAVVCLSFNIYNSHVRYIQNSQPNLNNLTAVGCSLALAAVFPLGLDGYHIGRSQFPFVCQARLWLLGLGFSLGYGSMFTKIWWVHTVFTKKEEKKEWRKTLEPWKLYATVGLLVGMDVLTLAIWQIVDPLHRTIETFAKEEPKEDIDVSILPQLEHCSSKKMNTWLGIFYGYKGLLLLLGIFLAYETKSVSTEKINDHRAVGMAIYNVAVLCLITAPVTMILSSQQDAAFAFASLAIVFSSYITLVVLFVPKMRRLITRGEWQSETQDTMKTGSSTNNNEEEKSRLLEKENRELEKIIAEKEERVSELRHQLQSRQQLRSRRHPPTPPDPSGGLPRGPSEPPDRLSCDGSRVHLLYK
# T1 sequence (O88871 41-940 partner): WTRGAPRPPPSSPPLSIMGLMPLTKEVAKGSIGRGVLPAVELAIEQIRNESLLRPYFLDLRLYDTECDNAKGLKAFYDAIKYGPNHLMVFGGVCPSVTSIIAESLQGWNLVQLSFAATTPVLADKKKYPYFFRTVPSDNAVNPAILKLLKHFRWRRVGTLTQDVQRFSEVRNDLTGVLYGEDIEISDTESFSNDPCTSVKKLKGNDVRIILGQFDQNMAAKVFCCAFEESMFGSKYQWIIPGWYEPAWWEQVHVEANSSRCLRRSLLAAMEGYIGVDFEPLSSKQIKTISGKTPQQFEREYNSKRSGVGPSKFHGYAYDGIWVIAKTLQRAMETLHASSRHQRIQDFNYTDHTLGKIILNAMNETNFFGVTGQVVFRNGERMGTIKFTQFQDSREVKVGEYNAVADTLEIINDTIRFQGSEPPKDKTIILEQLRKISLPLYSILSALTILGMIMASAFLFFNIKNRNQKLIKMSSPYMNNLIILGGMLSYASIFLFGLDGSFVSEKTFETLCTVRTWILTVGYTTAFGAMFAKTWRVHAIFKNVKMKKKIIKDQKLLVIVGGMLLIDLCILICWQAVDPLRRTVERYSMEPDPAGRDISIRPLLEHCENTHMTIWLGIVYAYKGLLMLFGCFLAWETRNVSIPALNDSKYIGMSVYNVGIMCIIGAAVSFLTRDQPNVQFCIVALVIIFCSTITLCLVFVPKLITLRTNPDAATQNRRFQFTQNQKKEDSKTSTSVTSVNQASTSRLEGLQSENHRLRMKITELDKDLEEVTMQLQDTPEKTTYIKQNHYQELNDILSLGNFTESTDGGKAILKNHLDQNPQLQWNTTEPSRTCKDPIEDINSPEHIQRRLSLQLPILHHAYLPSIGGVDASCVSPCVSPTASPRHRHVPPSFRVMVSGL
Structure (SMILES),IC50 (GABAB receptor [1]) [nM],EC50 [2] [nM],EC50 [3] [nM],GABAB receptor agonist or partial agonist activity (GABAB receptor [4])
Cl.NC[C@H](CC(=O)O)c1ccc(Cl)c(CCc2ccncc2)c1 [(3R)-4-amino-3-[4-chloro-3-(2-(4-pyridyl)ethyl)phenyl]butanoic acid hydrochloride],< 25000,< 100,< 700,agonist or partial agonist activity
Cl.N#Cc1cc(F)cc(-c2cc([C@H](CN)CC(=O)O)ccc2Cl)c1 [(3R)-4-amino-3-[4-chloro-3-(3-cyano-5-fluorophenyl)phenyl]butanoic acid hydrochloride],< 25000,< 100,< 700,agonist or partial agonist activity
Cl.N#Cc1ccc(F)c(-c2cc([C@H](CN)CC(=O)O)ccc2Cl)c1 [(3R)-4-amino-3-[4-chloro-3-(3-cyano-6-fluorophenyl)phenyl]butanoic acid hydrochloride],< 25000,< 100,< 700,agonist or partial agonist activity
Cc1ccc(C#N)cc1-c1cc([C@H](CN)CC(=O)O)ccc1Cl.Cl [(3R)-4-amino-3-[4-chloro-3-(3-cyano-6-methylphenyl)phenyl]butanoic acid hydrochloride],< 25000,< 100,< 700,agonist or partial agonist activity
"Cl.NC[C@H](CC(=O)O)c1ccc(Cl)c(-c2cccc(C(=O)O)c2)c1 [Example 25, 3-{5-[(1R)-2-Amino-1-(carboxymethyl)ethyl]-2-chlorophenyl}benzoic acid hydrochloride]",< 25000,< 100,< 700,agonist or partial agonist activity
"Cl.NC[C@H](CC(=O)O)c1ccc(Cl)c(-c2csc(C(=O)O)c2)c1 [Example 27, 4-{5-[(1R)-2-Amino-1-(carboxymethyl)ethyl]-2-chlorophenyl}thiophene-2-carboxylic acid hydrochloride]",< 25000,< 100,< 700,agonist or partial agonist activity
"Cl.N#Cc1cccc(-c2cc([C@H](CN)CC(=O)O)ccc2Cl)c1 [Example 33, (3R)-4-Amino-3-[4-chloro-3-(3-cyanophenyl)phenyl]butanoic acid hydrochloride]",< 25000,< 100,< 700,agonist or partial agonist activity
"Cl.NC[C@H](CC(=O)O)c1ccc(Cl)c(-c2cc(C(=O)O)ccc2Cl)c1 [Example 46, 3-{5-[(1R)-2-Amino-1-(carboxymethyl)ethyl]-2-chlorophenyl}-4-chlorobenzoic acid hydrochloride]",< 25000,< 100,< 700,agonist or partial agonist activity
"Cl.NC[C@H](CC(=O)O)c1ccc(Cl)c(-c2cc(F)cc(C(=O)O)c2)c1 [Example 50, 3-{5-[(1R)-2-Amino-1-(carboxymethyl)ethyl]-2-chlorophenyl}-5-fluorobenzoic acid hydrochloride]",< 25000,< 100,< 700,agonist or partial agonist activity
"Cl.NC[C@H](CC(=O)O)c1ccc(Cl)c(-c2cccc(C(N)=O)c2)c1 [Example 52, (3R)-4-Amino-3-[3-(3-carbamoylphenyl)-4-chlorophenyl]butanoic acid hydrochloride]",< 25000,< 100,< 700,agonist or partial agonist activity
COC(=O)C[C@@H](CN)c1ccc(Cl)c(OCc2ccncc2)c1 [methyl (3R)-4-amino-3-[4-chloro-3-(4-pyridylmethoxy)phenyl]butanoate hydrochloride],< 25000,< 100,< 700,

# Further lines, results first:
IC50 (GABAB receptor [1]) [nM],EC50 [2] [nM],EC50 [3] [nM],GABAB receptor agonist or partial agonist activity (GABAB receptor [4]),Structure (SMILES)
< 25000,< 100,< 700,agonist or partial agonist activity,Cl.NC[C@H](CC(=O)O)c1ccc(Cl)c(-c2ccc(F)c(C(=O)O)c2)c1 [5-{5-[(1R)-2-amino-1-(carboxymethyl)ethyl]-2-chlorophenyl}-2-fluorobenzoic acid hydrochloride]
< 25000,< 100,< 700,agonist or partial agonist activity,Cl.NC[C@H](CC(=O)O)c1ccc(Cl)c(OCc2cccnc2)c1 [(3R)-4-amino-3-[4-chloro-3-(3-pyridylmethoxy)phenyl]butanoic acid hydrochloride]
< 25000,< 100,< 700,agonist or partial agonist activity,Cc1ccncc1-c1cc([C@H](CN)CC(=O)O)ccc1Cl.Cl [(3R)-4-amino-3-[4-chloro-3-(4-methyl(3-pyridyl))phenyl]butanoic acid hydrochloride]
< 25000,< 100,< 700,agonist or partial agonist activity,Cl.N#Cc1ccc(Cl)c(-c2cc([C@H](CN)CC(=O)O)ccc2Cl)c1 [(3R)-4-amino-3-[4-chloro-3-(6-chloro-3-cyanophenyl)phenyl]butanoic acid hydrochloride]
< 25000,< 100,< 700,agonist or partial agonist activity,"N#Cc1ccc(-c2cc([C@H](CN)CC(=O)O)ccc2Cl)s1 [Example 29, (3R)-4-Amino-3-[4-chloro-3-(5-cyano-2-thienyl))phenyl]butanoic acid hydrochloride]"
< 25000,< 100,< 700,agonist or partial agonist activity,"Cl.NC[C@H](CC(=O)O)c1ccc(Cl)c(-c2cccnc2)c1 [Example 32, (3R)-4-Amino-3-(4-chloro-3-(3-pyridyl)phenyl)butanoic acid hydrochloride]"
< 25000,< 100,< 700,agonist or partial agonist activity,"Cl.NC[C@H](CC(=O)O)c1ccc(Cl)c(-c2cccc([N+](=O)[O-])c2)c1 [Example 37, (3R)-4-Amino-3-[4-chloro-3-(3-nitrophenyl)phenyl]butanoic acid hydrochloride]"
< 25000,< 100,< 700,agonist or partial agonist activity,"Cl.NC[C@H](CC(=O)O)c1ccc(Cl)c(NCc2ccncc2)c1 [Example 57, (3R)-4-Amino-3-{4-chloro-3-[(4-pyridylmethyl)amino]phenyl}butanoic acid hydrochloride]"
